From publication PMC6649263 (ACS Omega, 2019)

Columns and labels:
Type in all cases: biochemical
hGSK-3β = hGSK-3β (Homo sapiens, UniProt P49841); test: GSK-3β Kinase-Glo enzyme inhibition assay, with enzyme kinetics
electric eel AChE = electric eel AChE (Electrophorus electricus, UniProt O42275); test: Cholinesterase enzyme inhibition assay
horse serum BChE = horse serum BChE (Equus caballus, UniProt P81908); test: Cholinesterase enzyme inhibition assay
[1] = target: human recombinant β-secretase (BACE1) (Homo sapiens, UniProt P56817); test: BACE1 FRET enzyme inhibition assay, with enzyme kinetics; conditions: IC50 BACE1, mean ± SD, triplicate
Chain of human recombinant β-secretase (BACE1) (P56817 46-501): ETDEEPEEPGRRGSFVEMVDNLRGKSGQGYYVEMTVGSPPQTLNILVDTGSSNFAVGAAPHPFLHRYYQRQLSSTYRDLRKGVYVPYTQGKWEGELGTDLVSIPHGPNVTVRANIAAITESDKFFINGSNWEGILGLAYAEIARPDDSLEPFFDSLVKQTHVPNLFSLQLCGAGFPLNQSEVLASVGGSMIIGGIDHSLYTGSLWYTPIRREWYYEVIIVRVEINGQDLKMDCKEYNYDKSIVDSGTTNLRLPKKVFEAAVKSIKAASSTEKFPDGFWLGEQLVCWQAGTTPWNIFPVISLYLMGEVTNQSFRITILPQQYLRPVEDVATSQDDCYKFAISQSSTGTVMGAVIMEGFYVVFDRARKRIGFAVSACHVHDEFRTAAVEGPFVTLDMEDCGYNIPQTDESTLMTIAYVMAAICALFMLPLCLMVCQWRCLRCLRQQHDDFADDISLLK

Chain of hGSK-3β (P49841 whole entry): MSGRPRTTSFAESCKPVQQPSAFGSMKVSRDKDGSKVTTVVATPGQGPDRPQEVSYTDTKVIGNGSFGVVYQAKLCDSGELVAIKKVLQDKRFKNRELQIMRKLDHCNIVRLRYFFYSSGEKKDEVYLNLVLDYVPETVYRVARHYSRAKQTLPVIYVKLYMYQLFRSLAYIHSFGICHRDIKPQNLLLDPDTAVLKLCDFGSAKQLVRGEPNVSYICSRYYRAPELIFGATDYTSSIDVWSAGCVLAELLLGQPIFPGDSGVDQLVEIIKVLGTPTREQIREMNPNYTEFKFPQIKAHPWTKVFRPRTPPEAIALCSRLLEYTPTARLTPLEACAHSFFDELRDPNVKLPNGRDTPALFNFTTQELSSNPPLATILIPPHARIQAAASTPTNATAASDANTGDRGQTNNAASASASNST
Chain of horse serum BChE (P81908 whole entry): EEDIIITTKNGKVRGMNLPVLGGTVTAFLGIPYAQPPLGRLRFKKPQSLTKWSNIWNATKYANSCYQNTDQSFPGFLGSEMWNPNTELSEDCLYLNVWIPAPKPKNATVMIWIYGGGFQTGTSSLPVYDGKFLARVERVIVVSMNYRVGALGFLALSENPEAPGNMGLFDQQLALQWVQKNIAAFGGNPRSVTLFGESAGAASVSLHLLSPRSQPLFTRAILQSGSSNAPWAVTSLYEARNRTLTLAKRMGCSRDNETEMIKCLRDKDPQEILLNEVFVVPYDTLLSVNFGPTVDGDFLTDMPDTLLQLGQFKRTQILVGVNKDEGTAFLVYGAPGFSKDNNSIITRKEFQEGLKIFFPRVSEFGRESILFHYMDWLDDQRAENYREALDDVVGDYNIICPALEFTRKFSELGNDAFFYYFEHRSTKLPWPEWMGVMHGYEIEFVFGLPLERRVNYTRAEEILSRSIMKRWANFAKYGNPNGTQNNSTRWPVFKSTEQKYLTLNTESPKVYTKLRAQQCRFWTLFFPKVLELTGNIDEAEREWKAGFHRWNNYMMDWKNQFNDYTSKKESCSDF
Chain of electric eel AChE (O42275 24-633): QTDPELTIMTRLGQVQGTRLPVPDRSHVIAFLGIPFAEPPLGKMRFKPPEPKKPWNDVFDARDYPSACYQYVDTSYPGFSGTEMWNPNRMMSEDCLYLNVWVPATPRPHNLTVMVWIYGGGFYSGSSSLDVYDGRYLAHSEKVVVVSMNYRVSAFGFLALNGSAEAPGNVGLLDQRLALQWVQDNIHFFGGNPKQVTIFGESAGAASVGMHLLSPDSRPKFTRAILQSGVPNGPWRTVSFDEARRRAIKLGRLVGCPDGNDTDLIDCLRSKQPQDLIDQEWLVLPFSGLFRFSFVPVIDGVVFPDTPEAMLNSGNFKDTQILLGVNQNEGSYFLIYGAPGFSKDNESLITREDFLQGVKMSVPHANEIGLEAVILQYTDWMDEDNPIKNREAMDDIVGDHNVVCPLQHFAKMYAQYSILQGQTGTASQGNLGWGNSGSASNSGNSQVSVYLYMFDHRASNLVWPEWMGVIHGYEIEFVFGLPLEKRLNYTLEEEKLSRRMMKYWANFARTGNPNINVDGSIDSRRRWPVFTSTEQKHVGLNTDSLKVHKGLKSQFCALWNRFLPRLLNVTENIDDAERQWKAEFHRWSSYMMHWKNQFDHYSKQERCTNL

Row | SMILES | IC50 (hGSK-3β) [µM] | IC50 (electric eel AChE) [µM] | IC50 (horse serum BChE) [µM] | IC50 [1] [µM]
1 | CC(C)=CCC/C(C)=C/Cc1c(O)ccc2cc(-c3cc(O)cc(O)c3CC=C(C)C)oc12 [mulberrofuran D (1), mulberrofuran D] | 8.12 ± 0.66 | 23 ± 1.15 | 6.12 ± 1.41 | –
2 | C[C@@]12C=C(c3c(O)cc(-c4cc5ccc(O)cc5o4)cc3O)C[C@@H](C1)c1ccc(O)cc1O2 [mulberrofuran H (3), mulberrofuran H] | 4.41 ± 0.3 | > 200 | 64.5 ± 3.1 | 1.04 ± 0.78
